Laboratory results taken from PubChem BioAssay (NCI).
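Assay format: 96-well plates, 48-hour exposure. Here, GI50 denotes the concentration required for 50% inhibition of growth. At the TGI there is no net growth.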

Tests used:
Assay in all cases: DTP human tumour cell line panel, 48 h
NCI-H23 lung = tested on: NCI-H23 lung
A549 NSCLC = tested on: A549 NSCLC
MDA-N = tested on: MDA-N
MDA-MB-435 = tested on: MDA-MB-435
SK-MEL-2 melanoma = tested on: SK-MEL-2 melanoma
PC-3 prostate = tested on: PC-3 prostate
HCC-2998 colon = tested on: HCC-2998 colon
SK-MEL-5 melanoma = tested on: SK-MEL-5 melanoma
UACC-257 melanoma = tested on: UACC-257 melanoma
TK-10 renal = tested on: TK-10 renal
NCI/ADR-RES ovarian = tested on: NCI/ADR-RES ovarian
RXF 393 renal = tested on: RXF 393 renal
LOX IMVI melanoma = tested on: LOX IMVI melanoma
SR leukemia = tested on: SR leukemia

| SMILES | TGI (NCI-H23 lung) [µM] | TGI (A549 NSCLC) [µM] | TGI (MDA-N) [µM] | TGI (MDA-MB-435) [µM] | TGI (SK-MEL-2 melanoma) [µM] | TGI (PC-3 prostate) [µM] | TGI (HCC-2998 colon) [µM] | TGI (SK-MEL-5 melanoma) [µM] | TGI (UACC-257 melanoma) [µM] | TGI (TK-10 renal) [µM] | TGI (NCI/ADR-RES ovarian) [µM] | TGI (RXF 393 renal) [µM] | TGI (LOX IMVI melanoma) [µM] | TGI (SR leukemia) [µM] | GI50 (HCC-2998 colon) [µM] | GI50 (SR leukemia) [µM] | GI50 (TK-10 renal) [µM] |
| --- | --- | --- | --- | --- | --- | --- | --- | --- | --- | --- | --- | --- | --- | --- | --- | --- | --- |
| CCC(=O)N(c1ccccc1)C(C)CN1CCC(O)(c2cccc(C(F)(F)F)c2)CC1 (stereo unspecified) | 47.5 | > 100 | 39.2 | 42 | 43 | 46 | 57.3 | 34.9 | 34.3 | 73.3 | 53.4 | > 100 | 35 |  |  |  |  |
| O=c1sc(Nc2ccc3ccccc3c2Cl)nc2ccccc12 | > 100 | > 100 |  | > 100 | > 100 | > 100 | > 100 | > 100 | > 100 | > 100 | > 100 | > 100 | > 100 | > 100 |  |  |  |
| CC(=O)c1cc(CC2Cc3cc4c(cc3C2=O)CCC4)cc2c1CCC2 (stereo unspecified) | > 100 | > 100 |  | > 100 | > 100 | > 100 | > 100 | 61.2 | > 100 | > 100 | > 100 |  | > 100 | > 100 |  |  |  |
| CC(C)(C)CNCCCNc1ccc(Cl)cc1 | > 100 | > 100 | > 100 | 68.2 | > 100 | > 100 |  |  | 58.1 | 73.9 | > 100 | 74.3 | 46.9 | 49.4 |  |  |  |
| Cc1occc1C(=S)Nc1ccc(Cl)c(C(=O)OCC(C)C)c1 | 45.3 | 42.4 | 47.8 | 32.8 | 40.2 | 38.7 | 35.3 | 29 | 40.2 | 33.5 | 28.6 |  | 28.6 |  |  |  |  |
| CN1CN(c2ccccc2)C2(CCN(C3Nc4ccccc4O3)CC2)C1=O (stereo unspecified) | 54.9 | > 100 | 49.1 | 42.1 | 28.3 | 45.2 |  | 32 | 33.7 | 46.3 | 56.1 | 35.5 | 26.8 | > 100 |  |  |  |
| NC1=NCC(CN2CCCCC2)O1 (stereo unspecified) |  | > 100 | > 100 | > 100 |  | > 100 |  | > 100 | > 100 | > 100 | > 100 | > 100 | > 100 | > 100 |  |  |  |
| COC(O)C(=O)c1c2c(cc3c1CCC3)CCC2 (stereo unspecified) | > 100 | > 100 | > 100 | > 100 | > 100 | > 100 | > 100 | > 100 | > 100 | > 100 | > 100 |  | > 100 | > 100 |  |  |  |
| Cc1cc(O)c2c(c1)C(C1OC(CO)C(O)C(O)C1O)c1cc(O)cc(O)c1C2=O (stereo unspecified) | > 100 | > 100 | > 100 | > 100 |  | > 100 | > 100 | > 100 | > 100 | > 100 | > 100 |  |  | > 100 |  |  |  |
| Clc1ccc(OCc2nnc3sc(SSc4nn5c(COc6ccc(Cl)cc6)nnc5s4)nn23)cc1 | > 100 | > 100 |  | > 100 | > 100 |  | > 100 | > 100 | > 100 | > 100 | > 100 |  | > 100 | > 100 | 16.1 | 14.2 | 73.2 |
| CC1OC(OC2C(OC(=O)[C@]34CCC(C)(C)CC3C3=CCC5[C@@]6(C)C[C@H](O)[C@H](OC7OC(COC8OC(CO)C(O)C(O)C8O)C(O)C(O)C7O)[C@@](C)(C(=O)O)C6CC[C@@]5(C)C3(C)CC4)OCC(O)C2O)C(O)C(O)C1OC1OCC(O)C(O)C1O (stereo partly specified) | > 100 | > 100 |  |  | > 100 |  | > 100 | > 100 | > 100 | > 100 |  | > 100 | > 100 |  |  |  |  |
| CC(=O)Nc1ncc2c(n1)-c1ccccc1OC2c1ccccc1 (stereo unspecified) | > 100 | > 100 | > 100 | > 100 | > 100 | > 100 |  | > 100 | > 100 | 63.2 | > 100 | 63.2 | > 100 | > 100 |  |  |  |
| O=C(O)CCNc1ncc2c(n1)-c1ccccc1OC2 | > 100 | > 100 | > 100 | > 100 | > 100 | > 100 |  | > 100 | > 100 | > 100 | > 100 | > 100 | > 100 | > 100 |  |  |  |
| O=C(NC1CCN(Cc2ccccc2)CC1)c1cccc(I)c1 | 63.3 | > 100 |  | 34.9 | 38.5 | > 100 |  | 31.2 | 33.2 | 65.2 | > 100 | > 100 | 37.8 | 80.3 |  |  |  |
| CCOC(=O)c1cc(-c2ccc([N+](=O)[O-])cc2)c([N+](=O)[O-])[nH]1 | 8.01 | > 10 |  | 9.3 | > 10 |  | > 10 |  | 5.68 | > 10 | > 10 | 9.41 |  | > 10 |  |  |  |
| CC(NC(=O)C(N)CC(=O)O)C(=O)OC12CC3CC(CC(C3)C1)C2 (stereo unspecified) | > 100 | > 100 |  | > 100 | > 100 | > 100 | > 100 | > 100 | > 100 | > 100 | > 100 | > 100 | > 100 | > 100 |  |  |  |
| O=c1ccn(Cc2ccccc2CCl)c(=O)[nH]1 | 40.1 | > 100 |  | 96.5 | 89 | > 100 | 59 | 23.3 | 98.8 | > 100 | 44.4 | 53.5 |  | 73.4 |  |  |  |
